# Experimental data reported in patent publication US20260347403A1, “FUNGICIDAL COMPOUND” (priority 2022, published 2026).
# Read-outs that look alike come from different tables or passages of the source. Numbered stars: 1 amine (or outer) side, 2 acyl side, 3 side chain; on linkers, the order of the positions; unused ones are H or OH. Bridge positions count the residues as written; N and C are the ends. Square brackets hold non-standard residues; d marks the D form. Peptide text beside a SMILES is read from it. * marks the point of attachment. Tridecanoyl(12-Me) = CC(C)CCCCCCCCCCC(=O)*; X1 = NC(=O)CC(O)C(N[*:1])C(=O)[*:2]; NMeF = CN[CH](Cc1ccccc1)C(=O)O; NMeN = CN[CH](CC(N)=O)C(=O)O; X2 = CCC(C)CCCCCCCCCCC(=O)*
# What was measured:
# several fungal species = test: Leaf disc or leaf segment tests, summary over the fungi tested; assay type: in vivo; settings: up to; Tables 4 and 5
# Procedure: (§1) Leaf disks or leaf segments of various plant species were cut from plants grown in the greenhouse. The cut leaf disks, or segments were placed in multiwell plates (24-well format) onto water agar. The leaf disks were sprayed with a test solution before inoculation with the fungal spores. Compounds to be tested were prepared as DMSO solutions (max. 10 mg/ml) which were diluted to the appropriate concentration with water plus 0.025% Tween® 20 just before spraying. The inoculated leaf disks or segments were incubated under defined conditions (temperature, relative humidity, light, etc.) according to the respective test system. A single evaluation of disease level was carried out by visual evaluation 3-9 days days after inoculation, depending on the pathosystem as indicated below. Percent disease control relative to the untreated check leaf disks or segments was then calculated.
# [1] = test system: several phytopathogenic fungi; test: Liquid culture assays, summary over the fungi tested; assay type: cell-based; settings: up to; Tables 2 and 3
# Procedure: (§2) Mycelia fragments or conidia suspensions of a fungus, prepared either freshly from liquid cultures of the fungus or from cryogenic storage, were directly mixed into nutrient broth.
# (§3) A stock solution for compound of Formula I(a) and Formula I(b) was produced in DMSO (max. 10 mg/ml), which was diluted with water plus 0.025% Tween®20 to produce a 10× concentrated sample and 10 μl of this solution was pipetted into a microtiter plate (96-well format). The nutrient broth containing the fungal spores/mycelia fragments was then added to give an end concentration of the tested compound. The test plates were incubated in the dark at 24 °C and 96% rh. The inhibition of fungal growth was determined photometrically after 2-7 days, depending on the pathosystem, and percent antifungal activity relative to the untreated check was calculated.
# The effect of the test compound (Formula I(a), I(b) and Lipopeptin A) was tested against the following fungi under the conditions as outlined above and specifically herein below: […]
# Mycosphaerella arachidis = test: Liquid culture, Mycosphaerella arachidis (Cercospora arachidicola), early leaf spot, 4-5 days; assay type: cell-based; settings: Mycosphaerella arachidis, read-out: % reduction fungal growth
# Procedure: as §2, §3
# (§4) The effect of the test compound (Formula I(a), I(b) and Lipopeptin A) was tested against the following fungi under the conditions as outlined above and specifically herein below:
# Mycosphaerella arachidis (Cercospora arachidicola)/liquid culture (early leaf spot) Conidia of the fungus from cryogenic storage were directly mixed into nutrient broth (PDB potato dextrose broth). The inhibition of growth was determined photometrically 4-5 days after application.
# Botryotinia fuckeliana = test: Liquid culture, Botryotinia fuckeliana (Botrytis cinerea), Gray Mould, 3-4 days; assay type: cell-based
# Procedure: as §2, §3, §4
# Botryotinia fuckeliana (Botrytis cinerea)/Liquid Culture (Gray Mould)
# Conidia of the fungus from cryogenic storage were directly mixed into nutrient broth (Vogels broth). The inhibition of growth is determined photometrically 3-4 days after application.
# [2] = test system: Puccinia recondita f. sp. tritici; test: Leaf disc/segment test on wheat, Puccinia recondita f. sp. tritici (Brown Rust), 7-9 days after application; assay type: in vivo
# Procedure: as §1
# Puccinia recondita f. Sp. Tritici/Wheat/Leaf Disc (Brown Rust)
# Wheat leaf segments cv. Kanzler were placed on agar in multiwell plates (24-well format) and sprayed with the formulated test compound diluted in water. The leaf disks were inoculated with a spore suspension of the fungus 1 day after application. The inoculated leaf segments were incubated at 19 °C and 75% rh under a light regime of 12 h light/12 h darkness in a climate cabinet and the activity of a compound was assessed as percent disease control compared to untreated when an appropriate level of disease damage appears in untreated check leaf segments (7-9 days after application).
# Phaeosphaeria nodorum = test: Leaf disc test on wheat, Phaeosphaeria nodorum (Glume Blotch), 5-7 days after application; assay type: in vivo, Phaeosphaeria nodorum (Septoria nodorum) on wheat; settings: Table 5
# Procedure: as §1
# Phaeosphaeria Nodorum (Septoria nodorum)/Wheat/Leaf Disc (Glume Blotch)
# Wheat leaf segments cv. Kanzler were placed on agar in a multiwell plate (24-well format) and sprayed with the formulated test compound diluted in water. The leaf disks were inoculated with a spore suspension of the fungus 2 days after application. The inoculated test leaf disks were incubated at 20 °C and 75% rh under a light regime of 12 h light/12 h darkness in a climate cabinet and the activity of a compound was assessed as percent disease control compared to untreated when an appropriate level of disease damage appears in untreated check leaf disks (5-7 days after application)
smiles,measurement,setting,value
CC(C)CCCCCCCCCCC(=O)NC1C(=O)NC(CC(=O)O)C(=O)NC(C(O)CC(N)=O)C(=O)NC(CO)C(=O)N(C)C(CC(N)=O)C(=O)N(C)C(Cc2ccccc2)C(=O)NC(CCC(N)=O)C(=O)NC(CCC(=O)O)C(=O)OC1C (centres unmarked) [Formula I(a)] ({Tridecanoyl(12-Me)}-TD[X1]S[NMeN][NMeF]QE; ester 1-C; configuration not given here),reduction of fungal growth,several fungal species,up to 95%
same,control of phytopathogenic fungi,[1],up to 100%
same,inhibition of growth at 0.41 ppm,Mycosphaerella arachidis; Table 2,0%
same,inhibition of growth at 1.2 ppm,Mycosphaerella arachidis; Table 2,0%
same,inhibition of growth at 3.7 ppm,Mycosphaerella arachidis; Table 2,100%
same,inhibition of growth at 11 ppm,Mycosphaerella arachidis; Table 2,100%
same,inhibition of growth at 33 ppm,Mycosphaerella arachidis; Table 2,100%
same,inhibition of growth at 100 ppm,Mycosphaerella arachidis; Table 2,100%
same,inhibition of growth at 0.41 ppm,Mycosphaerella arachidis; Table 3,0%
same,inhibition of growth at 1.2 ppm,Mycosphaerella arachidis; Table 3,0%
same,inhibition of growth at 3.7 ppm,Mycosphaerella arachidis; Table 3,0%
same,inhibition of growth at 11 ppm,Mycosphaerella arachidis; Table 3,70%
same,inhibition of growth at 33 ppm,Mycosphaerella arachidis; Table 3,100%
same,inhibition of growth at 100 ppm,Mycosphaerella arachidis; Table 3,100%
same,% reduction fungal growth,"Botryotinia fuckeliana; Table 2, 0.41 ppm",0%
same,% reduction fungal growth,"Botryotinia fuckeliana; Table 2, 1.2 ppm",0%
same,% reduction fungal growth,"Botryotinia fuckeliana; Table 2, 3.7 ppm",0%
same,% reduction fungal growth,"Botryotinia fuckeliana; Table 2, 11 ppm",0%
same,% reduction fungal growth,"Botryotinia fuckeliana; Table 2, 33 ppm",0%
same,% reduction fungal growth,"Botryotinia fuckeliana; Table 2, 100 ppm",50%
same,% reduction fungal growth,"Botryotinia fuckeliana; Table 3, 3.7 ppm",50%
same,% reduction fungal growth,"Botryotinia fuckeliana; Table 3, 11 ppm",50%
same,% reduction fungal growth,"Botryotinia fuckeliana; Table 3, 33 ppm",70%
same,% reduction fungal growth,"Botryotinia fuckeliana; Table 3, 100 ppm",70%
same,% reduction of fungal growth,"[2]; Table 4, 0.82 ppm",0%
same,% reduction of fungal growth,"[2]; Table 4, 2.5 ppm",0%
same,% reduction of fungal growth,"[2]; Table 4, 7.4 ppm",0%
same,% reduction of fungal growth,"[2]; Table 4, 22 ppm",0%
same,% reduction of fungal growth,"[2]; Table 4, 67 ppm",90%
same,% reduction of fungal growth,"[2]; Table 4, 200 ppm",100%
same,% reduction of fungal growth,"[2]; Table 5, 0.82 ppm",0%
same,% reduction of fungal growth,"[2]; Table 5, 2.5 ppm",0%
same,% reduction of fungal growth,"[2]; Table 5, 7.4 ppm",0%
same,% reduction of fungal growth,"[2]; Table 5, 22 ppm",35%
same,% reduction of fungal growth,"[2]; Table 5, 67 ppm",90%
same,% reduction of fungal growth,"[2]; Table 5, 200 ppm",95%
same,% reduction of fungal growth,Phaeosphaeria nodorum; 0.82 ppm,0%
same,% reduction of fungal growth,Phaeosphaeria nodorum; 2.5 ppm,0%
same,% reduction of fungal growth,Phaeosphaeria nodorum; 7.4 ppm,0%
same,% reduction of fungal growth,Phaeosphaeria nodorum; 22 ppm,0%
same,% reduction of fungal growth,Phaeosphaeria nodorum; 67 ppm,0%
same,% reduction of fungal growth,Phaeosphaeria nodorum; 200 ppm,50%
CCC(C)CCCCCCCCCCC(=O)NC1C(=O)NC(CC(=O)O)C(=O)NC(C(O)CC(N)=O)C(=O)NC(CO)C(=O)N(C)C(CC(N)=O)C(=O)N(C)C(Cc2ccccc2)C(=O)NC(CCC(N)=O)C(=O)NC(CCC(=O)O)C(=O)OC1C (centres unmarked) [Formula I(b)] (X2-TD[X1]S[NMeN][NMeF]QE; ester 1-C; configuration not given here),reduction of fungal growth,several fungal species,up to 95%
same,control of phytopathogenic fungi,[1],up to 100%
same,inhibition of growth at 0.41 ppm,Mycosphaerella arachidis; Table 2,0%
same,inhibition of growth at 1.2 ppm,Mycosphaerella arachidis; Table 2,0%
same,inhibition of growth at 3.7 ppm,Mycosphaerella arachidis; Table 2,0%
same,inhibition of growth at 11 ppm,Mycosphaerella arachidis; Table 2,90%
same,inhibition of growth at 33 ppm,Mycosphaerella arachidis; Table 2,100%
same,inhibition of growth at 100 ppm,Mycosphaerella arachidis; Table 2,100%
same,inhibition of growth at 0.41 ppm,Mycosphaerella arachidis; Table 3,0%
same,inhibition of growth at 1.2 ppm,Mycosphaerella arachidis; Table 3,0%
same,inhibition of growth at 3.7 ppm,Mycosphaerella arachidis; Table 3,0%
same,inhibition of growth at 11 ppm,Mycosphaerella arachidis; Table 3,100%
same,inhibition of growth at 33 ppm,Mycosphaerella arachidis; Table 3,100%
same,inhibition of growth at 100 ppm,Mycosphaerella arachidis; Table 3,100%
same,% reduction fungal growth,"Botryotinia fuckeliana; Table 2, 0.41 ppm",0%
same,% reduction fungal growth,"Botryotinia fuckeliana; Table 2, 1.2 ppm",0%
same,% reduction fungal growth,"Botryotinia fuckeliana; Table 2, 3.7 ppm",0%
same,% reduction fungal growth,"Botryotinia fuckeliana; Table 2, 11 ppm",0%
same,% reduction fungal growth,"Botryotinia fuckeliana; Table 2, 33 ppm",0%
same,% reduction fungal growth,"Botryotinia fuckeliana; Table 2, 100 ppm",50%
same,% reduction fungal growth,"Botryotinia fuckeliana; Table 3, 11 ppm",50%
same,% reduction fungal growth,"Botryotinia fuckeliana; Table 3, 33 ppm",50%
same,% reduction fungal growth,"Botryotinia fuckeliana; Table 3, 100 ppm",70%
same,% reduction of fungal growth,"[2]; Table 4, 0.82 ppm",0%
same,% reduction of fungal growth,"[2]; Table 4, 2.5 ppm",0%
same,% reduction of fungal growth,"[2]; Table 4, 7.4 ppm",0%
same,% reduction of fungal growth,"[2]; Table 4, 22 ppm",0%
same,% reduction of fungal growth,"[2]; Table 4, 67 ppm",45%
same,% reduction of fungal growth,"[2]; Table 4, 200 ppm",70%
same,% reduction of fungal growth,"[2]; Table 5, 0.82 ppm",0%
same,% reduction of fungal growth,"[2]; Table 5, 2.5 ppm",0%
same,% reduction of fungal growth,"[2]; Table 5, 7.4 ppm",0%
same,% reduction of fungal growth,"[2]; Table 5, 22 ppm",35%
same,% reduction of fungal growth,"[2]; Table 5, 67 ppm",70%
same,% reduction of fungal growth,"[2]; Table 5, 200 ppm",95%
same,% reduction of fungal growth,Phaeosphaeria nodorum; 0.82 ppm,0%
same,% reduction of fungal growth,Phaeosphaeria nodorum; 2.5 ppm,0%
same,% reduction of fungal growth,Phaeosphaeria nodorum; 7.4 ppm,0%
same,% reduction of fungal growth,Phaeosphaeria nodorum; 22 ppm,0%
same,% reduction of fungal growth,Phaeosphaeria nodorum; 67 ppm,0%
same,% reduction of fungal growth,Phaeosphaeria nodorum; 200 ppm,0%
